Experimental data reported in ChEMBL document CHEMBL4052640 (Eur J Med Chem, 2017).

What was measured:
[1] = system: Respiratory syncytial virus; assay type: functional, cell-based; conditions: human respiratory syncytial virus, HeLa
[2] = system: Sindbis virus; assay type: functional; conditions: Vero
[3] = system: Coxsackievirus B4; assay type: functional; conditions: Enterovirus B, Vero
[4] = cells; conditions: MDCK
[5] = system: MDCK; test: Cytotoxicity against dog MDCK cells assessed as reduction in cell viability measured after 5 to 6 days by MTS assay; assay type: cell-based, Canis lupus familiaris
[6] = system: Human respirovirus 3; test: microbe, parasite or virus in culture; conditions: Human respirovirus 3, Vero
[7] = system: Coxsackievirus B4; assay type: functional, cell-based; conditions: Enterovirus B, HeLa
[8] = cells; conditions: Influenza A virus, MDCK
[9] = system: Vesicular stomatitis virus; test: microbe, parasite or virus in culture; conditions: HeLa
[10] = system: Mammalian orthoreovirus 1; assay type: functional; conditions: Mammalian orthoreovirus 1, Vero
[11] = system: Yellow fever virus; test: microbe, parasite or virus in culture; conditions: Vero
[12] = cells; conditions: Influenza A virus, MDCK; remark: listed apart in the source
[13] = system: Influenza B virus; test: microbe, parasite or virus in culture; conditions: B/Ned/537/05, MDCK
[14] = system: Punta Toro virus; assay type: functional; conditions: Vero
[15] = system: Influenza A virus; assay type: functional, cell-based; conditions: A/Ned/378/05(H1N1), MDCK
[16] = system: Influenza A virus; assay type: functional, cell-based; conditions: A/Ned/378/05(H1N1), MDCK; remark: listed apart in the source

CC1(C)N=C(N)N=C(N)N1c1cccc(F)c1
EC50 [1]: 0.01 µM | EC50 [2]: > 100 µM | EC50 [3]: > 100 µM | EC50 [4]: 0.2 µM | CC50 [5]: > 100 µM | EC50 [6]: > 100 µM | EC50 [7]: > 100 µM | EC50 [8]: 21 µM | EC50 [9]: > 100 µM | EC50 [10]: 9.5 µM | EC50 [11]: > 100 µM | EC50 [12]: > 100 µM | EC50 [13]: 1.7 µM | EC50 [14]: > 100 µM

CCOC(=O)c1ccc(N2C(N)=NC(N)=NC2(C)C)cc1
EC50 [1]: > 100 µM | EC50 [2]: > 100 µM | EC50 [3]: > 100 µM | EC50 [15]: > 100 µM | EC50 [4]: > 100 µM | CC50 [5]: > 100 µM | EC50 [6]: > 100 µM | EC50 [7]: > 100 µM | EC50 [8]: > 83 µM | EC50 [9]: > 100 µM | EC50 [16]: > 100 µM | EC50 [10]: > 100 µM | EC50 [11]: > 100 µM | EC50 [12]: > 83 µM | EC50 [13]: > 100 µM | EC50 [14]: > 100 µM

NC1=NC2(CCCCC2)N(c2cccc(Cl)c2)C(N)=N1
EC50 [2]: > 100 µM | EC50 [3]: > 100 µM | EC50 [4]: 3 µM | CC50 [5]: > 100 µM | EC50 [6]: > 100 µM | EC50 [7]: > 100 µM | EC50 [8]: > 100 µM | EC50 [9]: > 100 µM | EC50 [10]: > 100 µM | EC50 [11]: > 100 µM | EC50 [12]: > 100 µM | EC50 [13]: 10 µM | EC50 [14]: > 100 µM

N=C(N)NC(=N)Nc1ccc(Cl)cc1 [4-CHLOROPHENYLBIGUANIDE]
EC50 [1]: > 100 µM | EC50 [2]: > 100 µM | EC50 [3]: > 100 µM | EC50 [15]: > 100 µM | EC50 [4]: > 100 µM | CC50 [5]: > 100 µM | EC50 [6]: > 100 µM | EC50 [7]: > 100 µM | EC50 [8]: > 83 µM | EC50 [9]: > 100 µM | EC50 [16]: > 100 µM | EC50 [10]: > 100 µM | EC50 [11]: > 100 µM | EC50 [12]: > 83 µM | EC50 [13]: > 100 µM | EC50 [14]: > 100 µM

NC1=NC2(CCCCC2)N(c2ccc(Cl)cc2)C(N)=N1
EC50 [1]: > 100 µM | EC50 [2]: > 100 µM | EC50 [3]: > 100 µM | EC50 [15]: > 100 µM | EC50 [4]: 36 µM | CC50 [5]: > 100 µM | EC50 [6]: > 100 µM | EC50 [7]: > 100 µM | EC50 [8]: 49 µM | EC50 [9]: > 100 µM | EC50 [16]: > 100 µM | EC50 [10]: > 100 µM | EC50 [11]: > 100 µM | EC50 [12]: 10 µM | EC50 [13]: > 83 µM | EC50 [14]: > 100 µM

CC1(C)N=C(N)N=C(N)N1c1ccccc1Cl
EC50 [1]: 48 µM | EC50 [2]: > 100 µM | EC50 [3]: > 100 µM | EC50 [15]: > 100 µM | EC50 [4]: 19 µM | CC50 [5]: > 100 µM | EC50 [6]: > 100 µM | EC50 [7]: > 100 µM | EC50 [8]: > 83 µM | EC50 [9]: > 100 µM | EC50 [16]: > 100 µM | EC50 [10]: > 100 µM | EC50 [11]: > 100 µM | EC50 [12]: 34 µM | EC50 [13]: 56 µM | EC50 [14]: > 100 µM

CC1(C)N=C(N)N=C(N)N1c1cc(C(F)(F)F)cc(C(F)(F)F)c1
EC50 [1]: 0.27 µM | EC50 [2]: > 100 µM | EC50 [3]: > 100 µM | EC50 [4]: 0.8 µM | CC50 [5]: > 100 µM | EC50 [6]: > 100 µM | EC50 [7]: > 100 µM | EC50 [8]: 36 µM | EC50 [9]: > 100 µM | EC50 [10]: > 100 µM | EC50 [11]: > 100 µM | EC50 [12]: > 100 µM | EC50 [13]: 1.8 µM | EC50 [14]: > 100 µM

CC1(C)N=C(N)N=C(N)N1c1ccc(C(=O)O)cc1
EC50 [1]: > 100 µM | EC50 [2]: > 100 µM | EC50 [3]: > 100 µM | EC50 [15]: > 100 µM | EC50 [4]: > 100 µM | CC50 [5]: > 100 µM | EC50 [6]: > 100 µM | EC50 [7]: > 100 µM | EC50 [8]: > 83 µM | EC50 [9]: > 100 µM | EC50 [16]: > 100 µM | EC50 [10]: > 100 µM | EC50 [11]: > 100 µM | EC50 [12]: > 83 µM | EC50 [13]: > 100 µM | EC50 [14]: > 100 µM

NC12CC3CC(CC(C3)C1)C2 [AMANTADINE]
EC50 [15]: 2.3 µM | EC50 [4]: > 400 µM | CC50 [5]: > 400 µM | EC50 [8]: 211 µM | EC50 [16]: 2.2 µM | EC50 [12]: 124 µM | EC50 [13]: > 400 µM

NC(=O)c1ncn([C@@H]2O[C@H](CO)[C@@H](O)[C@H]2O)n1 [RIBAVIRIN]
EC50 [1]: 5.8 µM | EC50 [2]: > 250 µM | EC50 [3]: > 250 µM | EC50 [15]: 10 µM | EC50 [16]: 7.6 µM | EC50 [10]: > 250 µM | EC50 [11]: > 250 µM | EC50 [14]: 29 µM

CC1(C)N=C(N)N=C(N)N1c1ccc([N+](=O)[O-])cc1
EC50 [1]: 27 µM | EC50 [2]: > 100 µM | EC50 [3]: > 100 µM | EC50 [15]: > 100 µM | EC50 [4]: 7.8 µM | CC50 [5]: > 100 µM | EC50 [6]: > 100 µM | EC50 [7]: > 100 µM | EC50 [8]: > 83 µM | EC50 [9]: > 100 µM | EC50 [16]: > 100 µM | EC50 [10]: > 100 µM | EC50 [11]: > 100 µM | EC50 [12]: > 83 µM | EC50 [13]: 35 µM | EC50 [14]: > 100 µM

[H]/N=C(\N/C(=N/[H])Nc1ccc(Cl)cc1)NC(C)C [PROGUANIL]
EC50 [1]: > 100 µM | EC50 [2]: > 100 µM | EC50 [3]: > 100 µM | EC50 [15]: > 100 µM | EC50 [4]: > 100 µM | CC50 [5]: > 100 µM | EC50 [6]: > 100 µM | EC50 [7]: > 100 µM | EC50 [8]: > 83 µM | EC50 [9]: > 100 µM | EC50 [16]: > 100 µM | EC50 [10]: > 100 µM | EC50 [11]: > 100 µM | EC50 [12]: > 83 µM | EC50 [13]: > 100 µM | EC50 [14]: > 100 µM

CC1(C)N=C(N)N=C(Nc2ccc(Cl)cc2)N1
EC50 [1]: > 100 µM | EC50 [2]: > 100 µM | EC50 [3]: > 100 µM | EC50 [15]: > 100 µM | EC50 [4]: > 100 µM | CC50 [5]: > 100 µM | EC50 [6]: > 100 µM | EC50 [7]: > 100 µM | EC50 [8]: > 83 µM | EC50 [9]: > 100 µM | EC50 [16]: > 100 µM | EC50 [10]: > 100 µM | EC50 [11]: > 100 µM | EC50 [12]: > 83 µM | EC50 [13]: > 100 µM | EC50 [14]: > 100 µM

NC1=NC2(CCCC2)N(c2cccc(Cl)c2)C(N)=N1
EC50 [1]: 0.22 µM | EC50 [2]: > 100 µM | EC50 [3]: > 100 µM | EC50 [4]: 0.4 µM | CC50 [5]: > 100 µM | EC50 [6]: > 100 µM | EC50 [7]: > 100 µM | EC50 [8]: 49 µM | EC50 [9]: > 100 µM | EC50 [10]: > 100 µM | EC50 [11]: > 100 µM | EC50 [12]: > 100 µM | EC50 [13]: 4.5 µM | EC50 [14]: > 100 µM

NC1=NC2(CCCC2)N(c2cccc(C(F)(F)F)c2)C(N)=N1
EC50 [1]: 0.2 µM | EC50 [2]: > 100 µM | EC50 [3]: > 100 µM | EC50 [4]: 0.33 µM | CC50 [5]: > 100 µM | EC50 [6]: > 100 µM | EC50 [7]: > 100 µM | EC50 [8]: > 100 µM | EC50 [9]: > 100 µM | EC50 [10]: > 100 µM | EC50 [11]: > 100 µM | EC50 [12]: > 100 µM | EC50 [13]: 1.6 µM | EC50 [14]: > 100 µM

Cc1ccc(N2C(N)=NC(N)=NC2(C)C)cc1
EC50 [2]: > 100 µM | EC50 [3]: > 100 µM | EC50 [15]: 48 µM | EC50 [4]: 1.2 µM | CC50 [5]: > 100 µM | EC50 [6]: > 100 µM | EC50 [7]: > 100 µM | EC50 [8]: 34 µM | EC50 [9]: > 100 µM | EC50 [16]: 34 µM | EC50 [10]: > 100 µM | EC50 [11]: > 100 µM | EC50 [12]: 53 µM | EC50 [13]: 11 µM | EC50 [14]: > 100 µM
